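Compound exposure: 48 hours, 5 concentrations, 96-well plates. The concentration for 50% growth inhibition is given as GI50. At the TGI there is no net growth.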
Columns and labels:
Assay in all cases: growth of human tumour cells (NCI), 48 h
SK-MEL-2 melanoma = system: SK-MEL-2 melanoma
EKVX NSCLC = system: EKVX NSCLC
HOP-62 NSCLC = system: HOP-62 NSCLC
TK-10 renal = system: TK-10 renal
A549 NSCLC = system: A549 NSCLC
K-562 leukemia = system: K-562 leukemia
HL-60(TB) leukemia = system: HL-60(TB) leukemia
OVCAR-5 ovarian = system: OVCAR-5 ovarian
SN12C renal = system: SN12C renal
BT-549 breast = system: BT-549 breast

CCOP(=O)(OCC)OC1C=CC2CCC1C2 (configuration not stated)
TGI (SK-MEL-2 melanoma): > 100 µM
TGI (EKVX NSCLC): > 100 µM
TGI (HOP-62 NSCLC): > 100 µM
TGI (TK-10 renal): > 100 µM
TGI (A549 NSCLC): > 100 µM
TGI (K-562 leukemia): > 100 µM
TGI (HL-60(TB) leukemia): > 100 µM
TGI (OVCAR-5 ovarian): > 100 µM
TGI (SN12C renal): > 100 µM

O=P1(c2ccccc2)CCCCC1
TGI (SK-MEL-2 melanoma): > 100 µM
TGI (EKVX NSCLC): > 100 µM
TGI (HOP-62 NSCLC): > 100 µM
TGI (TK-10 renal): > 100 µM
TGI (A549 NSCLC): > 100 µM
TGI (K-562 leukemia): > 100 µM
TGI (HL-60(TB) leukemia): > 100 µM
TGI (OVCAR-5 ovarian): > 100 µM
TGI (SN12C renal): > 100 µM

COc1cc(C(=O)N2CCN(c3ncccn3)CC2)c(N)cc1OCc1ccccc1
GI50 (SK-MEL-2 melanoma): > 100 µM
TGI (SK-MEL-2 melanoma): > 100 µM
GI50 (TK-10 renal): > 100 µM
TGI (TK-10 renal): > 100 µM
GI50 (A549 NSCLC): > 100 µM
TGI (A549 NSCLC): > 100 µM
GI50 (K-562 leukemia): > 100 µM
TGI (K-562 leukemia): > 100 µM
GI50 (HL-60(TB) leukemia): > 100 µM
TGI (HL-60(TB) leukemia): > 100 µM
GI50 (OVCAR-5 ovarian): 29.6 µM
TGI (OVCAR-5 ovarian): > 100 µM
GI50 (SN12C renal): 63.9 µM
TGI (SN12C renal): > 100 µM

COC(=O)/C=C/c1c(CC=C(C)C)ncn1C
TGI (SK-MEL-2 melanoma): > 100 µM
TGI (EKVX NSCLC): > 100 µM
TGI (HOP-62 NSCLC): > 100 µM
TGI (TK-10 renal): > 100 µM
TGI (A549 NSCLC): > 100 µM
TGI (K-562 leukemia): > 100 µM
TGI (HL-60(TB) leukemia): 31.6 µM
TGI (OVCAR-5 ovarian): > 100 µM
TGI (SN12C renal): > 100 µM

CCCO/S(=N\S(=O)(=O)c1ccccc1)c1ccccc1[N+](=O)[O-] (configuration not stated)
TGI (SK-MEL-2 melanoma): > 100 µM
TGI (EKVX NSCLC): > 100 µM
TGI (HOP-62 NSCLC): > 100 µM
TGI (A549 NSCLC): > 100 µM
TGI (K-562 leukemia): > 100 µM
TGI (OVCAR-5 ovarian): > 100 µM
TGI (SN12C renal): > 100 µM

COc1cc(OC)c(/C=C/c2c3ccccc3cc[n+]2C)c(OC)c1
GI50 (SK-MEL-2 melanoma): 2.64 µM
TGI (SK-MEL-2 melanoma): 6.3 µM
GI50 (HOP-62 NSCLC): 3.52 µM
TGI (HOP-62 NSCLC): > 33.7 µM
GI50 (BT-549 breast): 1.58 µM
TGI (BT-549 breast): 21.8 µM
GI50 (TK-10 renal): 3.27 µM
TGI (TK-10 renal): 23.1 µM
GI50 (A549 NSCLC): 2.13 µM
TGI (A549 NSCLC): > 100 µM
GI50 (K-562 leukemia): 0.863 µM
TGI (K-562 leukemia): > 100 µM
GI50 (HL-60(TB) leukemia): 0.811 µM
TGI (HL-60(TB) leukemia): 7.32 µM
GI50 (OVCAR-5 ovarian): 3.04 µM
TGI (OVCAR-5 ovarian): > 49 µM
GI50 (SN12C renal): 2.31 µM
TGI (SN12C renal): 18.6 µM

COc1ncc(-c2ccc3ncnc(Nc4cccc(Cl)c4)c3c2)cc1NS(=O)(=O)C1CC1
GI50 (K-562 leukemia): > 100 µM
TGI (K-562 leukemia): > 100 µM
GI50 (SN12C renal): 1.58 µM
TGI (SN12C renal): > 100 µM

COc1c[c]([Hg][O]C(C)=O)c(OC)c(NC(=O)CC(C)=O)[c]1[Hg][O]C(C)=O
GI50 (SK-MEL-2 melanoma): 13.8 µM
TGI (SK-MEL-2 melanoma): 28.2 µM
GI50 (EKVX NSCLC): 19.9 µM
TGI (EKVX NSCLC): 36.3 µM
GI50 (HOP-62 NSCLC): 20 µM
TGI (HOP-62 NSCLC): 34.4 µM
GI50 (TK-10 renal): 4.46 µM
TGI (TK-10 renal): 14 µM
GI50 (A549 NSCLC): 26 µM
TGI (A549 NSCLC): 45.9 µM
GI50 (K-562 leukemia): 1.48 µM
TGI (K-562 leukemia): 5.53 µM
GI50 (HL-60(TB) leukemia): 2.41 µM
TGI (HL-60(TB) leukemia): 5.35 µM
GI50 (OVCAR-5 ovarian): 19.3 µM
TGI (OVCAR-5 ovarian): 33.7 µM
GI50 (SN12C renal): 13.7 µM
TGI (SN12C renal): 27.8 µM

COc1ccc(-c2ccc(-c3ccc(C(=N)N)s3)s2)cc1
GI50 (SK-MEL-2 melanoma): 2.22 µM
TGI (SK-MEL-2 melanoma): 4.14 µM
GI50 (HOP-62 NSCLC): 0.214 µM
TGI (HOP-62 NSCLC): 0.446 µM
GI50 (TK-10 renal): 0.175 µM
TGI (TK-10 renal): 0.337 µM
GI50 (A549 NSCLC): 0.195 µM
TGI (A549 NSCLC): 0.393 µM
GI50 (K-562 leukemia): 0.184 µM
TGI (K-562 leukemia): 0.426 µM
GI50 (HL-60(TB) leukemia): 0.208 µM
TGI (HL-60(TB) leukemia): 0.423 µM
GI50 (OVCAR-5 ovarian): 0.197 µM
TGI (OVCAR-5 ovarian): 0.43 µM
GI50 (SN12C renal): 0.205 µM
TGI (SN12C renal): 0.465 µM

CNS(=O)(=O)NNS(=O)(=O)c1ccc(Br)cc1
TGI (SK-MEL-2 melanoma): > 100 µM
TGI (EKVX NSCLC): > 100 µM
TGI (HOP-62 NSCLC): > 100 µM
TGI (TK-10 renal): > 100 µM
TGI (A549 NSCLC): > 100 µM
TGI (K-562 leukemia): > 100 µM
TGI (HL-60(TB) leukemia): > 100 µM
TGI (OVCAR-5 ovarian): > 100 µM

CC(C)C(=O)NS(=O)(=O)c1ccccc1
TGI (SK-MEL-2 melanoma): > 100 µM
TGI (EKVX NSCLC): > 100 µM
TGI (HOP-62 NSCLC): > 100 µM
TGI (TK-10 renal): > 100 µM
TGI (A549 NSCLC): > 100 µM
TGI (K-562 leukemia): > 100 µM
TGI (HL-60(TB) leukemia): > 100 µM
TGI (OVCAR-5 ovarian): > 100 µM
TGI (SN12C renal): > 100 µM

CC1COC(C)(C)P(=O)(c2ccccc2)C1 (configuration not stated)
TGI (SK-MEL-2 melanoma): > 100 µM
TGI (EKVX NSCLC): > 100 µM
TGI (HOP-62 NSCLC): > 100 µM
TGI (TK-10 renal): > 100 µM
TGI (A549 NSCLC): > 100 µM
TGI (K-562 leukemia): > 100 µM
TGI (HL-60(TB) leukemia): > 100 µM
TGI (OVCAR-5 ovarian): > 100 µM
TGI (SN12C renal): > 100 µM

CC(C)N(CCn1c2c3ccccc3ccc2c2oc(=O)c3ccccc3c21)C(C)C
TGI (SK-MEL-2 melanoma): > 100 µM
TGI (EKVX NSCLC): > 100 µM
TGI (HOP-62 NSCLC): 98.7 µM
TGI (TK-10 renal): > 100 µM
TGI (A549 NSCLC): > 100 µM
TGI (K-562 leukemia): > 100 µM
TGI (HL-60(TB) leukemia): > 100 µM
TGI (OVCAR-5 ovarian): > 100 µM
TGI (SN12C renal): > 100 µM

CC(=O)[O][Ga]([Br])[O]C(C)=O
GI50 (SK-MEL-2 melanoma): > 100 µM
TGI (SK-MEL-2 melanoma): > 100 µM
GI50 (TK-10 renal): > 100 µM
TGI (TK-10 renal): > 100 µM
GI50 (A549 NSCLC): > 100 µM
TGI (A549 NSCLC): > 100 µM
GI50 (K-562 leukemia): > 100 µM
TGI (K-562 leukemia): > 100 µM
GI50 (HL-60(TB) leukemia): > 100 µM
TGI (HL-60(TB) leukemia): > 100 µM
GI50 (OVCAR-5 ovarian): > 100 µM
TGI (OVCAR-5 ovarian): > 100 µM
GI50 (SN12C renal): > 100 µM
TGI (SN12C renal): > 100 µM

NCCSc1nc(-c2ccccc2)c(-c2ccccc2)o1
TGI (SK-MEL-2 melanoma): > 100 µM
TGI (EKVX NSCLC): > 100 µM
TGI (HOP-62 NSCLC): > 100 µM
TGI (BT-549 breast): > 100 µM
TGI (TK-10 renal): > 100 µM
TGI (A549 NSCLC): > 100 µM
TGI (K-562 leukemia): > 100 µM
TGI (OVCAR-5 ovarian): > 100 µM
TGI (SN12C renal): > 100 µM

Cc1c(/C=N/NC(=O)c2ccc(Cl)cc2)c(=O)n(-c2ccccc2)n1C
TGI (SK-MEL-2 melanoma): > 100 µM
TGI (EKVX NSCLC): > 100 µM
TGI (HOP-62 NSCLC): > 100 µM
TGI (TK-10 renal): > 100 µM
TGI (A549 NSCLC): > 100 µM
TGI (K-562 leukemia): > 100 µM
TGI (HL-60(TB) leukemia): > 100 µM
TGI (SN12C renal): > 100 µM

O=C1c2ccccc2-c2c1c1ccccc1c(=O)n2CCCCl
GI50 (SK-MEL-2 melanoma): 47.4 µM
TGI (SK-MEL-2 melanoma): > 100 µM
GI50 (EKVX NSCLC): 18.1 µM
TGI (EKVX NSCLC): > 100 µM
GI50 (HOP-62 NSCLC): 1.77 µM
TGI (HOP-62 NSCLC): 6.57 µM
GI50 (BT-549 breast): 14.6 µM
TGI (BT-549 breast): 58.3 µM
GI50 (TK-10 renal): 3.26 µM
TGI (TK-10 renal): 14.3 µM
GI50 (A549 NSCLC): 3.23 µM
TGI (A549 NSCLC): 16 µM
GI50 (K-562 leukemia): 12.7 µM
TGI (K-562 leukemia): > 100 µM
GI50 (SN12C renal): 12.1 µM
TGI (SN12C renal): 51.8 µM

CCn1c(=O)c2c(=O)c3c4c(oc3oc2c2ccccc21)C(=O)c1ccccc1C4=O
GI50 (SK-MEL-2 melanoma): > 100 µM
TGI (SK-MEL-2 melanoma): > 100 µM
GI50 (EKVX NSCLC): 1.47 µM
TGI (EKVX NSCLC): > 100 µM
GI50 (HOP-62 NSCLC): > 21.6 µM
TGI (HOP-62 NSCLC): > 100 µM
GI50 (BT-549 breast): > 36 µM
TGI (BT-549 breast): > 100 µM
GI50 (TK-10 renal): > 71.5 µM
TGI (TK-10 renal): > 100 µM
GI50 (A549 NSCLC): > 100 µM
TGI (A549 NSCLC): > 100 µM
GI50 (K-562 leukemia): 1.73 µM
TGI (K-562 leukemia): > 100 µM
GI50 (OVCAR-5 ovarian): > 100 µM
TGI (OVCAR-5 ovarian): > 100 µM
GI50 (SN12C renal): > 100 µM
TGI (SN12C renal): > 100 µM

O=C(/C=C/c1ccccc1Cl)NC1C=Nc2ccc([N+](=O)[O-])cc2NC1 (configuration not stated)
TGI (SK-MEL-2 melanoma): > 100 µM
TGI (EKVX NSCLC): > 100 µM
TGI (HOP-62 NSCLC): > 100 µM
TGI (TK-10 renal): > 100 µM
TGI (A549 NSCLC): > 100 µM
TGI (K-562 leukemia): > 100 µM
TGI (HL-60(TB) leukemia): > 100 µM
TGI (OVCAR-5 ovarian): > 100 µM
TGI (SN12C renal): > 100 µM

O=Cc1ccc2c(c1-c1c(C=O)ccc3c1OCO3)OCO2
TGI (SK-MEL-2 melanoma): > 100 µM
TGI (EKVX NSCLC): > 100 µM
TGI (HOP-62 NSCLC): > 100 µM
TGI (TK-10 renal): > 100 µM
TGI (A549 NSCLC): > 100 µM
TGI (K-562 leukemia): > 100 µM
TGI (HL-60(TB) leukemia): > 100 µM
TGI (OVCAR-5 ovarian): > 100 µM
TGI (SN12C renal): > 100 µM

— PubChem BioAssay (NCI)
